Where two headings read alike, the source gives them in different places.
Columns and labels:
[1] = tested on: CEM (T-lymphoblastic leukaemia); test: MTT cytotoxic test, CEM; assay type: cell-based; details: CEM cells, mean (x), read-out: Cytotoxic and antiproliferation activity MTT test (IC50, μM) CEM x
Excerpt: (§1) In order to evaluate antitumour activity of the new prepared substances in vitro, we used the MTT cytotoxic test on cell lines derived from normal tissues and tumours. In particular, they included the NIH 3T3 (mouse fibroblasts), K562 (human myeloid leukaemia), K562-tax (human myeloid leukaemia resistant to taxol and the overexpressing protein of the PgP multiple drug resistance), CEM (T-lymphoblastic leukaemia), CEM-DNR-bulk (T-lymphoblastic leukaemia resistant to doxorubicine, lacking the expression of target gene for inhibitors of topoisomerase II alpha) and the line A549 (human lung adenocarcinoma).

[2] = tested on: CEM-DNR-bulk (T-lymphoblastic leukaemia resistant to doxorubicine); test: MTT cytotoxic test, CEM-DNR-bulk; assay type: cell-based; details: CEM-DNR-BULK cells, mean (x); read-out: Cytotoxic and antiproliferation activity MTT test (IC50, μM) CEM-DNR-BULK x
Excerpt: as §1

[3] = tested on: K562 (human myeloid leukaemia); test: MTT cytotoxic test, K562; assay type: cell-based; details: K 562 cells, mean (x), read-out: Cytotoxic and antiproliferation activity MTT test (IC50, μM) K 562 x
Excerpt: as §1

[4] = tested on: K562-tax (human myeloid leukaemia resistant to taxol); test: MTT cytotoxic test, K562-tax; assay type: cell-based; details: K562-TAX cells, mean (x), read-out: Cytotoxic and antiproliferation activity MTT test (IC50, μM) K562-TAX x
Excerpt: as §1

[5] = tested on: A549 (human lung adenocarcinoma); test: MTT cytotoxic test, A549; assay type: cell-based; details: A 549 cells, mean (x), read-out: Cytotoxic and antiproliferation activity MTT test (IC50, μM) A 549 x
Excerpt: as §1

[6] = tested on: concavaline A-stimulated human lymphocytes; test: MTT test, inhibition of lymphocyte activation with ConA; assay type: cell-based; details: 5 μg/ml, mean (x)
Excerpt: The proliferation response of isolated lymphocytes to polyclonal mitogens belongs to the most important parameters of specific cell immunity. Most of the human lymphocytes occur in quiet state. Antigens or polyclonal mitogens, however, are capable of activating lymphatic cells, which is accompanied by dramatic changes of their cell metabolism (enhanced mitochondrial activity, protein and nucleic acid synthesis, formation of blastic cells and proliferations). Substances having the capability to suppress such processes show immunosuppressive activity in clinical conditions and, therefore, these tests can be used for screening tests of immunosuppressive activity in vitro. On this account, we use the above-mentioned MTT test, which evaluates both the survival and the proliferation activity of quiet vs. polyclonal-mitogen (concavaline A, 5 μg/ml)-stimulated human lymphocytes to screen the immunosuppressive activity of new substances (Jegorov et al., J. Mass. Spetrom., 2006).

`O=c1c(O)c(-c2ccc(N3CCN(CCO)CC3)c([N+](=O)[O-])c2)[nH]c2ccccc12` gave a melting point of 218 to 221 °C.

For `C/C=C/CCSc1ccc(-c2[nH]c3ccccc3c(=O)c2O)cc1[N+](=O)[O-]`, the IC50 [1] was 2.1 µM, the IC50 [2] was 3.2 µM and the IC50 [3] was 9.3 µM. The IC50 [4] was 5.2 µM and the IC50 [5] was 4.3 µM.

`O=c1c(O)c(-c2ccc3c(c2)ncn3CC(F)(F)F)[nH]c2ccccc12` gave an IC50 [6] of 4.2 µM.

In the case of `O=c1c(O)c(-c2ccc(Cl)c([N+](=O)[O-])c2)[nH]c2ccccc12` [Cl, 2-(4-Chlorine-3-nitrophenyl)-3-hydroxyquinoline-4(1H)-one], the IC50 [1] is reported as 2.6 µM, the IC50 [2] is reported as 3.5 µM and the IC50 [3] is reported as 2.3 µM. It also gave an IC50 [4] of 3.2 µM and an IC50 [5] of 4.2 µM.

Work on `O=c1c(O)c(-c2ccc(N3CCN(CCOCCO)CC3)c([N+](=O)[O-])c2)[nH]c2ccccc12` [Example 5, 3-Hydroxy-2-(4-{4-[2-(2-hydroxyethoxy)ethyl]piperazine-1-yl}-3-nitrophenyl)quinoline-4(1H)-one] yielded a melting point of 203 to 204 °C.

`CCNc1ccc(-c2[nH]c3ccccc3c(=O)c2O)cc1[N+](=O)[O-]` [Example 6, 2-[4-(Ethylamino)-3-nitrophenyl]-3-hydroxyquinoline-4(1H)-one] showed a melting point of 282 to 285 °C.

For `O=c1c(O)c(-c2ccc(Sc3ccccc3)c([N+](=O)[O-])c2)[nH]c2ccccc12` [Example 7, 3-Hydroxy-2-[3-nitro-4-(phenylthio)phenyl]quinoline-4(1H)-one], the melting point was 322 to 324 °C.

`O=c1c(O)c(-c2ccc(-n3ccnc3)c([N+](=O)[O-])c2)[nH]c2ccccc12` [Example 8, 3-Hydroxy-2-[4-(1H-imidazole-1-yl)-3-nitrophenyl]quinoline-4(1H)-one] gave a melting point of 278 to 280 °C.

For `O=c1c(O)c(-c2ccc(F)c([N+](=O)[O-])c2)[nH]c2ccccc12` [F], the IC50 [6] was 3.8 µM.

Compound `CCN(CC)CCn1cnc2cc(-c3[nH]c4ccccc4c(=O)c3O)ccc21` [—(CH2)2N(C2H5)2] has an IC50 [1] of 5.2 µM, an IC50 [2] of 71.2 µM and an IC50 [3] of 2.1 µM. The IC50 [4] was 6.5 µM and the IC50 [5] was 3.5 µM.

With `O=c1c(O)c(-c2ccc3c(c2)ncn3CCSCCO)[nH]c2ccccc12` [—(CH2)2S(CH2)2OH] the IC50 [1] was 0.8 µM, the IC50 [2] was 2.2 µM and the IC50 [3] was 3.1 µM. For the same compound, the IC50 [4] was 4.5 µM and the IC50 [5] was 3.6 µM.

`CCCCCCn1cnc2cc(-c3[nH]c4ccccc4c(=O)c3O)ccc21` [—(CH2)5CH3] showed an IC50 [1] of 2.8 µM, an IC50 [2] of 54 µM and an IC50 [3] of 8.5 µM. It also gave an IC50 [4] of 35 µM and an IC50 [5] of 44.3 µM.

For `O=CNCCn1cnc2cc(-c3[nH]c4ccccc4c(=O)c3O)ccc21` [—CH2CH2NHCHO], the IC50 [6] was 1.1 µM.

For `CCCN(CCC)c1ccc(-c2[nH]c3ccccc3c(=O)c2O)cc1[N+](=O)[O-]` [—N(CH2CH2CH3)2], the IC50 [1] was 0.7 µM, the IC50 [2] was 2.2 µM and the IC50 [3] was 0.6 µM. It also gave an IC50 [4] of 1.2 µM, an IC50 [5] of 1.1 µM and an IC50 [6] of 0.9 µM.

`O=c1c(O)c(-c2ccc(N(CCO)CCO)c([N+](=O)[O-])c2)[nH]c2ccccc12` [—N(CH2CH2OH)2] showed an IC50 [1] of 0.3 µM, an IC50 [2] of 143 µM and an IC50 [3] of 187 µM. It also gave an IC50 [4] of 198 µM, an IC50 [5] of 224 µM and an IC50 [6] of 0.9 µM.

Work on `CCN(C)c1ccc(-c2[nH]c3ccccc3c(=O)c2O)cc1[N+](=O)[O-]` [—N(CH3)(CH2CH3)] yielded an IC50 [1] of 1.7 µM, an IC50 [2] of 129 µM and an IC50 [3] of 0.7 µM. For the same compound, the IC50 [4] was 163 µM, the IC50 [5] was 66.5 µM and the IC50 [6] was 5.7 µM.

`O=c1c(O)c(-c2ccc(NCCO)c([N+](=O)[O-])c2)[nH]c2ccccc12` [—NH(CH2)2OH] showed an IC50 [1] of 2.7 µM, an IC50 [2] of 98.8 µM and an IC50 [3] of 7.3 µM. The IC50 [4] was 44.9 µM, the IC50 [5] was 46.8 µM and the IC50 [6] was 3.8 µM.

Work on `O=c1c(O)c(-c2ccc(NCCCO)c([N+](=O)[O-])c2)[nH]c2ccccc12` [—NH(CH2)3OH, 3-Hydroxy-2-{4-[(3-hydroxypropyl)amino]-3-nitrophenyl}quinoline-4(1H)-one] yielded an IC50 ([1]; Homo sapiens, CCRF-CEM) of 1.4 µM, an IC50 [2] of 46.3 µM and an IC50 ([3]; Homo sapiens, K562) of 6.2 µM. The IC50 ([4]; Homo sapiens) was 12.9 µM, the IC50 ([5]; Homo sapiens, A549) was 12.4 µM and the IC50 ([6]; Lymphocyte) was 0.8 µM. The melting point was 233 to 236 °C.

`O=c1c(O)c(-c2ccc(NCCCCO)c([N+](=O)[O-])c2)[nH]c2ccccc12` [—NH(CH2)4OH] showed an IC50 [1] of 0.7 µM, an IC50 [2] of 15.1 µM and an IC50 [3] of 1.8 µM. The IC50 [4] was 8.6 µM, the IC50 [5] was 5.7 µM and the IC50 [6] was 1.1 µM.

Compound `O=c1c(O)c(-c2ccc(NCCCCCO)c([N+](=O)[O-])c2)[nH]c2ccccc12` [—NH(CH2)5OH] has an IC50 [1] of 1 µM, an IC50 [2] of 10.8 µM and an IC50 [3] of 2.8 µM. The IC50 [4] was 5.7 µM, the IC50 [5] was 5.3 µM and the IC50 [6] was 0.6 µM.

With `CC(C)Nc1ccc(-c2[nH]c3ccccc3c(=O)c2O)cc1[N+](=O)[O-]` [—NHCH(CH3)2] the IC50 [1] was 1.6 µM, the IC50 [2] was 6.8 µM and the IC50 [3] was 2.1 µM. It also gave an IC50 [4] of 3 µM, an IC50 [5] of 2.8 µM and an IC50 [6] of 4.8 µM.

From patent publication US8299092B2, “Derivatives of 2-phenyl-3-hydroxyquinoline-4(1H)-one and methods of their preparation and utilization” (Univerzita Palackeho, priority 2006, dated 2012)
